Usually IC50 stands for the concentration at which inhibition is half-maximal. A lower IC50 goes with greater potency.

This is an account of results in ChEMBL document CHEMBL3045664, “Docking study on trametenolic acid B as a -glucosidase inhibitor” (Med Chem Res, 2012).

For the test, the target named is Alpha-glucosidase MAL62 (Saccharomyces cerevisiae, UniProt P07265). Put plainly: Inhibition of Saccharomyces cerevisiae (baker's yeast) alpha-glucosidase using p-nitrophenyl glucopyranoside as substrate preincubated for 30 min before substrate addition measured after 1 hr by spectrophotometric analysis.
Chain of Alpha-glucosidase MAL62 (P07265 whole entry): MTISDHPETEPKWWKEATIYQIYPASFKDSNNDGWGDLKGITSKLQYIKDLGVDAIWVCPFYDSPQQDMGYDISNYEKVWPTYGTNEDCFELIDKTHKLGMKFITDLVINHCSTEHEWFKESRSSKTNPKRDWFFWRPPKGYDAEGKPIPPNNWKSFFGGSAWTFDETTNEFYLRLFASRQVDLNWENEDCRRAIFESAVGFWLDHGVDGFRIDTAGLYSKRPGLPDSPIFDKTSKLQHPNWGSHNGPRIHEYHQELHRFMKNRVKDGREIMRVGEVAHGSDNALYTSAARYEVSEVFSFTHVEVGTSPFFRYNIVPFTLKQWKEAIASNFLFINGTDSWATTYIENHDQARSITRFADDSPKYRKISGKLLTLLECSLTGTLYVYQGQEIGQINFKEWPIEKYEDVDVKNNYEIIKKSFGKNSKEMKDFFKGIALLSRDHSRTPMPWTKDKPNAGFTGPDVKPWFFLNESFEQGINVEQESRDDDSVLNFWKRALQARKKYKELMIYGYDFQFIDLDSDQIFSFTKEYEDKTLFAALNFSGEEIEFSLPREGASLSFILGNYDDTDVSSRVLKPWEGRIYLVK

`CC(C)=CCC[C@@H](C(=O)O)[C@H]1CC[C@@]2(C)C3=C(CC[C@]12C)[C@@]1(C)CC[C@H](O)C(C)(C)[C@@H]1CC3` [TRAMETENOLIC ACID] yielded a 50% inhibitory concentration (IC50) of 17.1 µM.
